Calls of active or inactive are those of the source. The rule behind the calls is not given here.
Legend:
[1] = Volume of distribution in rat at 1 mg/kg, iv and 1 mg/kg, po; assay type: ADME, organism-based; conditions: in vivo
[2] = Half life in rat at 1 mg/kg, iv and 1 mg/kg, po; assay type: ADME, organism-based; conditions: in vivo
[3] = Metabolic stability in rat liver microsomes; assay type: ADME, Microsome; conditions: read-out: Stability
[4] = Metabolic stability in human liver microsomes; assay type: ADME, Microsome; conditions: read-out: Stability
[5] = tested on: Rattus norvegicus; experiment: Toxicity in po dosed rat assessed as lymphoid depletion from thymus for 4 days; assay type: organism-based; conditions: in vivo, 96 h
[6] = tested on: Rattus norvegicus; experiment: Toxicity in po dosed rat assessed as decrease in erythropoiesis for 4 days; assay type: organism-based, Erythrocyte; conditions: in vivo, 96 h
[7] = Oral bioavailability in rat at 1 mg/kg; assay type: ADME, organism-based; conditions: in vivo
[8] = target: T1, Histamine H4 receptor (Homo sapiens, UniProt Q9H3N8); experiment: Antagonist activity at full length human H4R expressed in HEK293 cells assessed as reversal of forskolin-induced cAMP production by CRE-beta-lactamase reporter gene assay; assay type: functional, cell-based
T1 sequence (Q9H3N8 whole entry): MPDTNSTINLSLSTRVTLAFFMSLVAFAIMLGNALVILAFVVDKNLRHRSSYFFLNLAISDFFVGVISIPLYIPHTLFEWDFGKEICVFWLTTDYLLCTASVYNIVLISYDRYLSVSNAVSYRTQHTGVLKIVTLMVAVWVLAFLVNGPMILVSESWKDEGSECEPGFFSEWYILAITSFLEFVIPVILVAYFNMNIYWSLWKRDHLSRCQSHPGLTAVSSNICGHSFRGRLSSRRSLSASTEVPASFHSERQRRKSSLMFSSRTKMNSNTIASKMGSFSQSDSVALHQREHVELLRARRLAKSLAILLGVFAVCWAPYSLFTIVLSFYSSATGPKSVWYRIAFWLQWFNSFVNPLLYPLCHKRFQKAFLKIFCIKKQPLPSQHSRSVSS

[9] = tested on: Rattus norvegicus; experiment: Toxicity in po dosed rat assessed as lymphoid depletion from spleen for 4 days; assay type: organism-based; conditions: in vivo, 96 h
[10] = tested on: Rattus norvegicus; experiment: Induction of pro-inflammatory response in rat dosed orally for 4 days; assay type: functional, organism-based
[11] = target: T1, Histamine H4 receptor; experiment: Displacement of [3H]-histamine from full length human H4R expressed in HEK293 cells; assay type: cell-based
[12] = Clearance in rat at 1 mg/kg, iv and 1 mg/kg, po; assay type: ADME, organism-based; conditions: in vivo
[13] = tested on: Rattus norvegicus; experiment: Toxicity in po dosed rat assessed as decrease in reticulocyte counts for 4 days; assay type: organism-based; conditions: in vivo, 96 h
[14] = tested on: Rattus norvegicus; experiment: Toxicity in po dosed rat assessed as lymphoid depletion from gut for 4 days; assay type: organism-based; conditions: in vivo, 96 h
[15] = tested on: Rattus norvegicus; experiment: Toxicity in rat assessed as mortality at high dose, po for 7 days; assay type: organism-based; conditions: in vivo, 168 h
[16] = tested on: Liver microsomes; experiment: Metabolic stability in human liver microsomes assessed as reactive metabolite generation; assay type: ADME, Microsome
[17] = target: T2, Histamine H4 receptor (Cavia porcellus, UniProt Q91ZY3); experiment: Displacement of [3H]-histamine from guinea pig H4R expressed in HEK293T cells; assay type: cell-based, HEK-293T
T2 sequence (Q91ZY3 whole entry): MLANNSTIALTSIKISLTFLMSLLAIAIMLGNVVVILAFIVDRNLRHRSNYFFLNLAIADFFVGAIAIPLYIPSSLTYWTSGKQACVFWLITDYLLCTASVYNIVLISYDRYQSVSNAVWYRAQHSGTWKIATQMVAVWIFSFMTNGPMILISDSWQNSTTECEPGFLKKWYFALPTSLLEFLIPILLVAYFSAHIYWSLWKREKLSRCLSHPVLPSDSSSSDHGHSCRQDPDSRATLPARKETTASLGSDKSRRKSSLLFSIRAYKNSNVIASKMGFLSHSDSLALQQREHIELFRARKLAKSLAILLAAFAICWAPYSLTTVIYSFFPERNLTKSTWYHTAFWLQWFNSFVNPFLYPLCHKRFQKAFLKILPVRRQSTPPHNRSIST

[18] = Displacement of [3H]-histamine from dog H4R expressed in HEK293T cells; assay type: cell-based, Canis lupus familiaris; conditions: hek-293t
[19] = Half life in rat at 1 mg/kg, iv and 5 mg/kg, po; assay type: ADME, organism-based; conditions: in vivo
[20] = target: T1, Histamine H4 receptor; experiment: Antagonist activity at H4R in human eosinophils assessed as inhibition of histamine-induced CD11b upregulation; assay type: functional
[21] = Lipophilicity, log D of the compound; assay type: physicochemical; conditions: octanol/water
[22] = target: T3, Histamine H4 receptor (Mus musculus, UniProt Q91ZY2); experiment: Displacement of [3H]-histamine from mouse H4R expressed in HEK293T cells; assay type: cell-based, HEK-293T
T3 sequence (Q91ZY2 whole entry): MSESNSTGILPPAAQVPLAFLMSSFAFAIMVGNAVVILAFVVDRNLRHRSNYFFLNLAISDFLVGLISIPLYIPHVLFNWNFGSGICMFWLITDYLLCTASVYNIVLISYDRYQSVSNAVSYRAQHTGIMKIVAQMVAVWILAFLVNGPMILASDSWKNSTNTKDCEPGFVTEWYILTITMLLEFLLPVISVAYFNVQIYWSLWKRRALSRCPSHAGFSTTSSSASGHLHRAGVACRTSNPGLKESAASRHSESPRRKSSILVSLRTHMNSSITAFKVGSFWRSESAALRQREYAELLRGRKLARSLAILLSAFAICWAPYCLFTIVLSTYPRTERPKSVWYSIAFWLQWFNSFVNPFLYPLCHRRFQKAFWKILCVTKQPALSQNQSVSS

[23] = Displacement of [3H]-histamine from macaque H4R expressed in HEK293T cells; assay type: cell-based, Macaca mulatta; conditions: hek-293t
[24] = Oral bioavailability in rat at 5 mg/kg; assay type: ADME, organism-based; conditions: in vivo
[25] = Plasma protein binding in rat at 1 mg/kg, iv and 5 mg/kg, po; assay type: ADME, organism-based; conditions: read-out: PPB (converted)
[26] = Half life in dog at 1 mg/kg, iv and 10 mg/kg, po; assay type: ADME, organism-based, Canis lupus familiaris; conditions: in vivo
[27] = Blood clearance in dog at 1 mg/kg, iv and 10 mg/kg, po; assay type: ADME, organism-based, Canis lupus familiaris
[28] = Volume of distribution in dog blood at 1 mg/kg, iv and 10 mg/kg, po; assay type: ADME, organism-based, Canis lupus familiaris
[29] = Oral bioavailability in dog at 10 mg/kg; assay type: ADME, organism-based, Canis lupus familiaris; conditions: in vivo
[30] = tested on: HEK-293T; experiment: Antagonist activity at dog H4R expressed in HEK293T cells assessed as reversal of forskolin-induced cAMP production by CRE-beta-lactamase reporter gene assay; assay type: functional, cell-based; conditions: Canis lupus familiaris
[31] = Ratio of drug level in blood to plasma in dog at 1 mg/kg, iv and 10 mg/kg, po; assay type: ADME, organism-based, Canis lupus familiaris
[32] = Volume of distribution in rat blood at 1 mg/kg, iv and 5 mg/kg, po; assay type: ADME, organism-based
[33] = target: T1, Histamine H4 receptor; experiment: Antagonist activity at H4R in human eosinophils assessed as inhibition of histamine-induced actin polymerisation; assay type: functional
[34] = Ratio of drug level in blood to plasma in rat at 1 mg/kg, iv and 5 mg/kg, po; assay type: ADME, organism-based
[35] = Ratio of drug level in blood to plasma in human; assay type: ADME; conditions: blood and plasma
[36] = tested on: HEK-293T; experiment: Inverse agonist activity at macaque H4R expressed in HEK293T cells assessed as reversal of forskolin-induced cAMP production by CRE-beta-lactamase reporter gene assay; assay type: functional, cell-based; conditions: Macaca mulatta
[37] = target: Histamine H4 receptor (Rattus norvegicus, UniProt Q91ZY1); experiment: Displacement of [3H]-histamine from rat H4R expressed in HEK293T cells; assay type: cell-based, HEK-293T
Sequence of Histamine H4 receptor (Rattus norvegicus, UniProt Q91ZY1) (Q91ZY1 whole entry): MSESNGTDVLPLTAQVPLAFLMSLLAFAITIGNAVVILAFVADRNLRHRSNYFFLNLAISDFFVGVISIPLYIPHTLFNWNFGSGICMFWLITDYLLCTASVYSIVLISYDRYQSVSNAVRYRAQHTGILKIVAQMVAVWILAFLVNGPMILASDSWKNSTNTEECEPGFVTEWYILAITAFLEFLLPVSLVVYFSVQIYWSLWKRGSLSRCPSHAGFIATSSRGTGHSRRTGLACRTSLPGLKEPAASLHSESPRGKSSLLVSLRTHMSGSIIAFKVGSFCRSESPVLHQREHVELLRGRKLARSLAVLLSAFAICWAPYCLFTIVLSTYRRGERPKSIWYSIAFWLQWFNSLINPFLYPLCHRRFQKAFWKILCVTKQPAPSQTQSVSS

[38] = tested on: Plasma; experiment: Plasma protein binding in dog at 1 mg/kg, iv and 10 mg/kg, po; assay type: ADME, organism-based, Canis lupus familiaris; conditions: in vivo
[39] = Blood clearance in rat at 1 mg/kg, iv and 5 mg/kg, po; assay type: ADME, organism-based
[40] = target: T1, Histamine H4 receptor; experiment: Displacement of [3H]-histamine from human H4R expressed in HEK293T cells; assay type: cell-based, HEK-293T
[41] = target: Histamine H4 receptor (Rattus norvegicus) (UniProt Q91ZY1); experiment: Partial agonist activity at rat H4R expressed in HEK293T cells assessed as reversal of forskolin-induced cAMP production by CRE-beta-lactamase reporter gene assay; assay type: functional, cell-based; conditions: HEK-293T
Sequence of Histamine H4 receptor (Rattus norvegicus) (Q91ZY1 whole entry): as above

[42] = Plasma protein binding in human; assay type: ADME, cell-free; conditions: read-out: PPB (converted)

## CN1C[C@@H]2CN(C(=O)c3nc4cc(F)c(F)cc4[nH]3)C[C@@H]2C1
[1]
  Vd: 4.1 L/kg
[2]
  half-life: 0.8 h
[3]
  microsomal CLint: 10 µL/min/mg
[4]
  microsomal CLint: < 7 µL/min/mg
[5]
  Activity: Dose-dependent effect
[6]
  Activity: Toxic
[7]
  bioavailability: 50%
[8]
  Ki: 53 nM
[9]
  Activity: Dose-dependent effect
[10]
  Activity: Active
[11]
  Ki: 128 nM
[12]
  clearance: 59 mL/min/kg
[13]
  Activity: Toxic
[14]
  Activity: Dose-dependent effect

## CN1CCN(c2cc(NCCC(C)(C)C)ncn2)CC1
[8]
  Ki: 92 nM

## CNC1CN(c2cc(N)nc(NCC3CC3)n2)C1
[3]
  microsomal CLint: < 8.5 µL/min/mg
[15]
  Activity: Toxic
[8]
  Ki: > 2000 nM
[11]
  Ki: 9070 nM

## CN1C[C@@H]2CN(C(=O)c3nc4cc(F)ccc4[nH]3)C[C@@H]2C1
[16]
  Stability: Stable
[3]
  microsomal CLint: 40 µL/min/mg
[4]
  microsomal CLint: < 7 µL/min/mg
[8]
  Ki: 39 nM
[11]
  Ki: 83 nM

## CN1C[C@@H]2CN(C(=N)c3nc4cc(F)c(F)cc4[nH]3)C[C@@H]2C1
[1]
  Vd: 31 L/kg
[2]
  half-life: 12 h
[3]
  microsomal CLint: 10 µL/min/mg
[4]
  microsomal CLint: < 7 µL/min/mg
[5]
  Activity: Dose-dependent effect
[6]
  Activity: Toxic
[7]
  bioavailability: 20%
[8]
  Ki: 10 nM
[9]
  Activity: Dose-dependent effect
[10]
  Activity: Active
[11]
  Ki: 10 nM
[12]
  clearance: 31 mL/min/kg
[13]
  Activity: Toxic
[14]
  Activity: Dose-dependent effect

## CN[C@@H]1CCN(c2cc(NCC3CC3)nc(N)n2)C1 [ADRIFORANT]
[17]
  Ki: 123 nM
[18]
  pKi: 5.79
[19]
  half-life: 7 h
[20]
  IC50: 4.9 nM
[3]
  microsomal CLint: < 8.5 µL/min/mg
[21]
  logD: -0.1
[22]
  Ki: 20.9 nM
[4]
  microsomal CLint: < 7 µL/min/mg
[23]
  pKi: 7.81
[24]
  bioavailability: 62%
[25]
  fraction unbound: 0.81
[26]
  half-life: 24 h
[27]
  clearance: 7 mL/min/kg
[28]
  Vd: 14 L/kg
[29]
  bioavailability: 39%
[30]
  Activity: Active
[8]
  Ki: 1.56 nM
[31]
  blood plasma ratio: 1
[32]
  Vd: 18 L/kg
[33]
  IC50: 1.3 nM
[11]
  Ki: 2.4 nM
[34]
  blood plasma ratio: 2
[35]
  blood plasma ratio: 3
[36]
  Activity: Active
[37]
  Ki: 12.3 nM
[38]
  PPB: 0%
[39]
  clearance: 29 mL/min/kg
[40]
  Ki: 6.17 nM
[41]
  Activity: Active
[42]
  fraction unbound: 0.84

Source: ChEMBL document CHEMBL1914379, “Challenges of drug discovery in novel target space. The discovery and evaluation of PF-3893787: a novel histamine H4 receptor antagonist” (Bioorg Med Chem Lett, 2011)
